Assay results: patent US7560462B2, “Compounds useful for inhibiting CHK1” (ICOS Corporation, priority 2004, dated 2009)

Experiments:
[1] = system: Chk1 phosphorylation in HT29 cells; assay: Western blot of Chk1 phosphorylation at serines 317 and 345; format: cell-based, human; settings: 20 μM for two h, then 22 h washout
Excerpt: To determine whether an agent is a Chk1 activator, the phosphorylation state of Chk1 can be measured using phospho-specific antibodies to specific phosphorylation sites on Chk1. […] Liu et al., Genes Dev. 14:1448-59, 2000; Zhao et al., Mol. Cell. Biol. 21:4129-39, 2001; Lopez-Girona et al., Proc. Natl. Acad. Sci. U.S.A. 98:11289-94, 2001; Guo et al., Genes Dev. 14:2745-56, 2000; Gatei et al., J. Biol. Chem. 278:14806-11, 2003; Ng et al., J Biol. Chem. 279(10):8808-19, 2004; Wang et al., Natl Acad Sci USA. 100(26):15387-92, 2003; Stojic et al., Genes Dev. 18(11):1331-44, 2004. These serine sites are phosphorylated by upstream checkpoint kinases, Atm and Atr. Liu et al., Genes Dev. 14:1448-59, 2000; Zhao et al. Mol. Cell. Biol., 21:4129-39, 2001).
The phosphorylation of these sites in response to a candidate Chk1 activator can be monitored by Western blot or immunohistochemistry of tumor cells. […] HT29 cells are treated with 20 μM gemcitabine for two h. The gemcitabine is washed out of the cell growth media and cells are incubated for 22 additional h. Protein lysates are prepared and separated by an SDS-polyacrylamide gel electrophoresis. Proteins are transferred to PVDF membranes and probed with antisera (Cell Signalling) specific for either phosphorylated serine 317 or 345 (Cell Signalling).

[2] = system: Chk1 serine 296 phosphorylation in HT29 cells; assay: Western blot of Chk1 phosphorylation at serine 296; format: cell-based, human
Method: Phosphorylation at this site is not inhibited by wortmannin, which inhibits Atm and Atr. Therefore, the phosphorylation of serine 296 is distinct from phosphorylation at serines 317 and 345. […] Therefore, this approach can be used to monitor Chk1 activity in tumors in response to Chk1 activators. Further, this approach can be used to measure inhibition of Chk1 activation by Chk1 inhibitors.
Thus, HT 29 cells are treated with 20 μM gemcitabine for two h. The gemcitabine is washed out of the cell growth media and cells are incubated for 22 additional h. Protein lysates are prepared and separated by an SDS-polyacrylamide gel electrophoresis. Proteins are transferred to polyvinylidene fluoride (PVDF) membranes and probed with antisera (Cell Signalling) specific for phosphorylated serine 296 (Cell Signalling). […] Further, HT29 cells treated with selective Chk1 inhibitors for 15 min show no serine 296 phosphorylation.

[3] = system: colon tumor cell line xenograft tumors; assay: Animal tumor models (xenograft); format: in vivo, Balb/c (nu/nu) mice; settings: 160 mg/kg i.p., xenograft mice
Excerpt: To test the ability of the Chk1 inhibitors of the invention to enhance the killing of tumors by DNA damaging agents in mice, xenograft tumor models using colon tumor cell lines are established. 5-fluorouracil (5-FU) or gemcitabine can be used as DNA damaging agents; HT29 and Colo205 (human colon carcinoma) and H460 and Calu-6 (nonsmall cell carcinoma) cells can be used to propagate xenograft tumors in 6-8 week old female […] Balb/c (nu/nu) mice. Mice are maintained in a laminar airflow cabinet under pathogen-free conditions and fed sterile food and water ad libitum. Cell lines are grown to subconfluence in RPMI 1640 media supplemented with 10% FBS, 100 U/mL penicillin, 100 μg/mL streptomycin, and 1.5 mM L-glutamine in a 5% CO2 humidified environment. Single cell suspensions are prepared in CMF-PBS, and cell concentration adjusted to 1×10^8 cells/mL. Mice are inoculated subcutaneously (s.c.) on the right flank or right leg with a total of 1×10^7 cells (100 μL). Mice are randomized (5-15 mice/group) into four treatment groups and used when tumors reach a volume of […] (usually 7-11 days post-inoculation). Tumors are measured with vernier calipers and tumor volumes are estimated using the empirically derived formula: tumor volume (cm^3)=tumor length (cm)×tumor width (cm)×tumor depth (cm)/3.3. […] Tumor size is monitored every other day for the duration of the experiment.

Nc1ccn([C@@H]2O[C@H](CO)[C@@H](O)C2(F)F)c(=O)n1 [gemcitabine, 2′,2′ difluoro-2′-deoxycytidine]
phosphorylation of Chk1 serines 317 and 345 [1]: results in the phosphorylation of both serines 317 and 345 | phosphorylation of Chk1 serine 296 ([2]; HT29 cells, 20 μM for two h, then 22 h washout): results in the phosphorylation of serine 296 | tumor growth [3]: delay in tumor growth is observed

COC[C@H]1OC(=O)c2coc3c2[C@@]1(C)C1=C(C3=O)[C@@H]2CCC(=O)[C@@]2(C)C[C@H]1OC(C)=O [wortmannin]
inhibition of Chk1 serine 296 phosphorylation ([2]; gemcitabine-stimulated tumor cells): not inhibited
